Test results taken from patent US10420746B2, “Pharmaceutical composition containing Bay 11-7082, parthenolide or a combination thereof for the treatment of obesity or cardiovascular diseases” (priority 2015, dated 2019).

Columns and labels:
[1] = system: human erythrocytes; experiment: GSH:GSSG ratio in treated human erythrocytes; conditions: 24 hours, 0.6% hematocrit, DMSO control 125:1
[2] = biological target: glucose-6-phosphate dehydrogenase (G6PDH) (Homo sapiens, UniProt P11413); experiment: G6PDH enzyme activity in lysates of treated human erythrocytes; parameters: inhibition of the G6PDH activity: dose or concentration left out as unconfirmed
Chain of glucose-6-phosphate dehydrogenase (G6PDH) (P11413 whole entry): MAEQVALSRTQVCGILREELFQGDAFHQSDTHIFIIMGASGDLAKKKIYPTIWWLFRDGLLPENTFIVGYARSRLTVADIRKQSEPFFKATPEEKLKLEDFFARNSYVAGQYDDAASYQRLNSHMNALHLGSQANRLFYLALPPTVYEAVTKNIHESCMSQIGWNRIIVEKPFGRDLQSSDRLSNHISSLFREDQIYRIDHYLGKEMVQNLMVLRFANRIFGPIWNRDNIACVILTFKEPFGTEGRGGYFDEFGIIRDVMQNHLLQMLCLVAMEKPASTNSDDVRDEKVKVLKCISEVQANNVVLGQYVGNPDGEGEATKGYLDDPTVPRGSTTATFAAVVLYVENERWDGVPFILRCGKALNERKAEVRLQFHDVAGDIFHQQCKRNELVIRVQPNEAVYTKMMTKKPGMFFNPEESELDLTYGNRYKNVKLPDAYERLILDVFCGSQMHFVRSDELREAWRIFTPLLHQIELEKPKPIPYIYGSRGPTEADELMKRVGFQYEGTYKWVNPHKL

[3] = biological target: T1, glutathione reductase (GR) (Homo sapiens, UniProt P00390); experiment: Glutathione reductase (GR) enzyme activity in lysates of treated human erythrocytes; conditions: for inhibition of the enzyme GR: concentration not given
T1 sequence (P00390 1-479 isoform P00390-2): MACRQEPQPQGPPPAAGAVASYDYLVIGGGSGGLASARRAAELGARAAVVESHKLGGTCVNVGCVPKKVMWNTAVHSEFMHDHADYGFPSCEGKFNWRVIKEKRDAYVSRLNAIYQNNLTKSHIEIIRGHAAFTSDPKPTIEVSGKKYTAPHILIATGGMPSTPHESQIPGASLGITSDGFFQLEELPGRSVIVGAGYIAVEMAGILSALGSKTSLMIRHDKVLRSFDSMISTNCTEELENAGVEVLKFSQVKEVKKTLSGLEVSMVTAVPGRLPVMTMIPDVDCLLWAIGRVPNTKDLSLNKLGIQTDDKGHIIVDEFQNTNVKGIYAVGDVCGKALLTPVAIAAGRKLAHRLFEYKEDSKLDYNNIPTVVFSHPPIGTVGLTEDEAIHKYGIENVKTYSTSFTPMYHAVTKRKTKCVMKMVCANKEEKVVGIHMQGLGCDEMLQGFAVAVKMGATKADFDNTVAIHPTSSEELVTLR

inhibition of the G6PDH activity ([2]; (clinically relevant concentration), erythrocytes treated 24 hours)	inhibition of G6PDH ([2]; already in low concentrations)	inhibition at 20 µM ([2]; read-out: G6PDH-inhibition)	GSR inhibition ([3]; 20 μM, erythrocytes 0.6% Hct treated 24 hours)	inhibition of the enzyme GR [3]	inhibition at 140 µM ([2]; read-out: inhibition of G6PDH)	inhibition at 140 µM ([3]; read-out: GR inhibition)	SMILES	GSH:GSSG ratio ([1]; 20 μM)	GSH:GSSG ratio ([1]; 140 μM)
complete inhibition	complete	100%	complete GSR inhibition	completely	–	–	Cc1ccc(S(=O)(=O)/C=C/C#N)cc1 [Bay 11-7082, 3-[(4-methylphenyl)sulfonyl]-(2E)-propenenitrile]	equal to 0 or approaching 0	–
–	–	–	–	50%	≥ 50%	≥ 50%	COC(=O)/C=C/C(=O)OC [dimethylfumarate, (E)-2-butenedioic acid dimethyl ester]	–	equal to 0 or approaching 0
